Patent US5319099A, “3-benzylidene-1-carbamoyl-2-pyrrolidone compounds useful as antiinflammatory agents” (Shionogi Seiyaku Kabushiki Kaisha, priority 1991, dated 1994)
Read-outs that look alike come from different tables or passages of the source.

Assays:
[1] = test system: PGE2 production from rat synovia cells (Rat SVC); assay: Inhibitory Activity on PGE2 Production from Rat Synovia Cells; format: cell-based, rat (LEW/Crj); conditions: human IL-1 β 30 U/ml, 15 hours, RIA
Description: Inhibitory Activity on PGE2 Production from Rat Synovia Cells
LEW/Crj rats (male, 300-350 g weight) were subjected to synovectomy. The isolated synovia cells were subcultivated under a certain condition up to a well amount of cells for the experiment. The cells were dispensed to each well of a 96-well microtiter plate at a concentration of 4×10^3 /160 μl/well and then cultivated for 72 hours in a CO2 incubator. Serial dilutions (20 μl each) of a test compound and human IL-1 β(final concentration: 30 U/ml) were added to the wells and incubated for 15 hours in a Co2 incubator. After the incubation, the supernatant was collected from each well and stored at -80° C. until PGE2 assay. […]

[2] = test system: Tunica Mucosa Ventriculi of rat (stomach); assay: Inducing Activities on Injury at Tunica Mucosa of Rat (stomach); format: in vivo, rat (LEW/Crj); conditions: oral, 6 hours
Description: Inducing Activities on Injury at Tunica Mucosa of Rat
Sixs LEW/Crj male rats (six week old, 140-160 g weight) were used per one group. A drug was orally administered to each rat fasted for 24 hours, then six hours later each rat were bled to death under anesthesia of ether. From each rat was taken out the stomach, in which about 6 ml of physiological saline was filled, then the stomach was steeped in 1% formalin solution for 15 min. The stomach was incised along with curvatura ventriculi major and observed with an actual-microscope to see the injured condition thereof, then the number of rats injuried at stomach and the length of hemorrhage macula were determined. The degree of the injury was shown as Lesion index (mm) which was the cumulative value of the length of hemorrhage macula in each administered group.

[3] = test system: IL-1 production in THP-1 cells; assay: Inhibitory Activity on IL-1 Production caused by The Stimulation of LPS in THP-1 Cells; format: cell-based; conditions: Homo sapiens, read-out: IC50 THP-1 IL-1
Description: Serial dilutions (100 μl each) of a test compound and LPS (final concentration: 10 μg/ml) were further added to each well and the plate was kept at 37° C. for 24 hours. Then, the supernatant was collected from each well and centrifuged (3000 rpm×10 min.). […]

[4] = test system: Carrageenin-Induced Paw Edema of Rat; assay: Inhibitory Activity on Carrageenin-Induced Paw-Edema of Rat; format: in vivo, rat (LEW/Crj); conditions: oral 1 hour before carrageenin, inhibitory rate 3 or 4 hours after carrageenin, read-out: ED30 Inhibitory Activities to Carrageenin-Induced Paw Edema of Rat
Description: Inhibitory Activity on Carrageenin-Induced Paw-Edema of Rat
Namely, male LEW/Crj rats (6-week-old, 140-170 g weight) fasted for 24 hours were used (7 to 8 rats per group).
A solution (0.1 ml) containing 1% λ-carrageenin (PICININ-A, Zushikagaku) was injected into the subplantar tissue of the right hind paw of each rat orally administered a test compound before 1 hour, to induce edema. The paw volume was calculated plethysmographically before and after the injection at an interval of 1 hour until 5 hours later. The inhibitory rate of the drug-administered group was calculated, with the vehicle group as the reference, to determine the efficacy of the test compounds by Dunnett-t assay. The anti-edema activity was indicated as ED30 calculated, by regression analysis method, based on the inhibitory rate shown 3 or 4 hours later after the administration of carrageenin.

[5] = test system: LTB4 production from rat peritoneal cells (Rat PEC); assay: Inhibitory Activity on LTB4 Production from Rat Peritoneal Cells; format: cell-based, rat (Jcl-SD); conditions: 0.25 h, Ca-ionophore A23187 1 μM, 15 min, RIA
Description: Inhibitory Activity on LTB4 Production from Rat Peritoneal Cells
To each male Jcl-SD rat (300-350 g weight) was intraperitoneally administered 10 ml of Hanks' solution containing 0.1% bovine serum albumin (hereinafter referred to as BSA) and 25 U/ml of heparin. Then the ascites were collected and centrifuged (1500 rpm×5 min., at 4° C.). The resulting cell fraction (precipitation) was suspended and adjusted at […] with Hanks' solution containing 0.1% BSA. The thus obtained suspension (800 μl, 8×10^5 cells) was dispensed into polypropylene tubes and incubated at 37° C. 10 min, and successively for 10 min. after addition of serial dilutions (100 μl each) of a test sample. Next, 100 μl of Ca-ionophore A23187 (final concentration: 1 μM) was added to the resulting suspension and allowed to stand for 15 min, then the mixture was ice-cooled to terminate the reaction. The reaction mixtures were centrifuged (3000 rpm×5 min., at 4° C.) to give supernatants, which were collected and stored at -80° C. until LTB4 assay. After thawed, the LTB4 assay was performed by RIA using ^3 H--LTB4.

[6] = THP-1 cells, LPS 10 μg/ml, 24 hours, RIA of IL-1 β

SMILES | IC50 [1] | Injury at Tunica Mucosa Ventriculi, Degree of Injury (Lesion index) ([2]; 10 mg/kg) | Injury at Tunica Mucosa Ventriculi, Number Occurrence/Sample ([2]; 10 mg/kg) | Injury at Tunica Mucosa Ventriculi, Degree of Injury (Lesion index) ([2]; 100 mg/kg) | Injury at Tunica Mucosa Ventriculi, Number Occurrence/Sample ([2]; 100 mg/kg) | Injury at Tunica Mucosa Ventriculi, Degree of Injury (Lesion index) ([2]; 200 mg/kg) | Injury at Tunica Mucosa Ventriculi, Number Occurrence/Sample ([2]; 200 mg/kg) | IC50 [3, 6] | ED30 [4] | IC50 [5] | Injury at Tunica Mucosa Ventriculi, Degree of Injury (Lesion index) ([2]; 400 mg/kg) | Injury at Tunica Mucosa Ventriculi, Number Occurrence/Sample ([2]; 400 mg/kg) | Injury at Tunica Mucosa Ventriculi, Degree of Injury (Lesion index) ([2]; 30 mg/kg) | Injury at Tunica Mucosa Ventriculi, Number Occurrence/Sample ([2]; 30 mg/kg) | Injury at Tunica Mucosa Ventriculi, Degree of Injury (Lesion index) ([2]; 3 mg/kg) | Injury at Tunica Mucosa Ventriculi, Number Occurrence/Sample ([2]; 3 mg/kg) | IC50 ([3]; THP-1, 24 h)
CC(C)(C)c1cc(C=C2CCN(C(N)=O)C2=O)cc(C(C)(C)C)c1O [Ia-1, N-carbamoyl-3-(3,5-di-tert-butyl-4-hydroxybenzylidene)pyrrolidin-2-one] | 400 nM | 0 ± 0 mm | 0/6 | 0 ± 0 mm | 0/6 | 0 ± 0 mm | 0/6 | 20000 nM | 18 mg/kg | 4000 nM |  |  |  |  |  |  | 
CC(C)(C)c1cc(C=C2CCN(C(=O)NO)C2=O)cc(C(C)(C)C)c1O [Ia-4, N-(N-hydroxycarbamoyl)-3-(3,5-di-tert-butyl-4-hydroxybenzylidene)pyrrolidin-2-one] | 200 nM |  |  | 0 ± 0 mm | 0/8 | 0 ± 0 mm | 0/8 | 25000 nM | 16 mg/kg | 3000 nM | 0.2 ± 0.1 mm | 3/8 |  |  |  |  | 
CN(O)C(=O)N1CCC(=Cc2cc(C(C)(C)C)c(O)c(C(C)(C)C)c2)C1=O [Ia-6, N-(N-hydroxy-N-methylcarbamoyl)-3-(3,5-di-tert-butyl-4-hydroxybenzylidene)pyrrolidin-2-one] | 9 nM | 0 ± 0 mm | 0/6 | 1.0 ± 0.5 mm | 3/6 |  |  | 34000 nM | 9 mg/kg | 3000 nM |  |  | 0.6 ± 0.5 mm | 3/6 |  |  | 
CON1CCC(=Cc2cc(C(C)(C)C)c(O)c(C(C)(C)C)c2)C1=O [Reference Compound, N-methoxy-3-(3,5-di-tert-butyl-4-hydroxybenzylidene)-2-pyrrolidone, reference compound] | 5 nM | 7.2 ± 1.2 mm | 6/6 |  |  |  |  |  | 3 mg/kg | 6000 nM |  |  | 11.2 ± 2.2 mm | 6/6 | 4.5 ± 1.3 mm | 6/6 | > 100000 nM
